Assay results as given in patent US20230093099A1, “COMPOUNDS AND METHODS OF TREATING CANCERS” (CULLGEN (SHANGHAI), INC., priority 2019, published 2023).

What follows are molecules tested on RS4;11 cells (assay: Cell viability assay (CellTiter-Glo) in RS4;11 cells). Conditions: Homo sapiens, 72 h; RS4;11 cells; cell viability, 3 days, CellTiter-Glo; read-out: IC50.
Assay type: cell-based
In short: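 RS4;11 cells seeded at 5000 per well, exposed for 3 days to 8- or 12-point 3-fold serial dilutions. Viability read by CellTiter-Glo luminescence; IC50 fitted by nonlinear least-squares regression.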

| Compound | IC50 [µM] |
| --- | --- |
| Cc1ncsc1-c1ccc(CNC(=O)[C@@H]2C[C@@H](O)CN2C(=O)[C@@H](NC(=O)CCCCCCCCCC(=O)N2CCN(c3ccc(Nc4nc5cccc(-c6ccc(S(C)(=O)=O)cc6)n5n4)cc3)CC2)C(C)(C)C)cc1 [JA-081, 4-Hydroxy-1-{2-[11-(4-{4-[5-(4-methanesulfonyl-phenyl)-[1,2,4]triazolo[1,5-a]pyridin-2-ylamino]-phenyl}-piperazin-1-yl)-11-oxo-undecanoylamino]-3,3-dimethyl-butyryl}-pyrrolidine-2-carboxylic acid 4-(4-methyl-thiazol-5-yl)-benzylamide] | > 10 |
| Cc1ncsc1-c1ccc(CNC(=O)[C@@H]2C[C@@H](O)CN2C(=O)[C@@H](NC(=O)COCCOCCOCCNC(=O)CN2CCC(n3cc(-c4cnc5cccc(-c6cc(F)c(CN7CCOCC7)c(F)c6)c5n4)cn3)CC2)C(C)(C)C)cc1 [JA-157, (2S,4R)-1-((S)-2-(tert-Butyl)-17-(4-(4-(8-(3,5-Difluoro-4-(morpholinomethyl)phenyl)quinoxalin-2-yl)-1H-pyrazol-1-yl)piperidin-1-yl)-4,16-dioxo-6,9,12-trioxa-3,15-diazaheptadecanoyl)-4-hydroxy-N-(4-(4-methylthiazol-5-yl)benzyl)pyrrolidine-2-carboxamide] | > 10 |
| Cc1cnc(Nc2ccc(N3CCN(CC(=O)NCCOCCC(=O)N[C@H](C(=O)N4C[C@H](O)C[C@H]4C(=O)NCc4ccc(-c5scnc5C)cc4)C(C)(C)C)CC3)cc2)nc1Nc1cccc(S(=O)(=O)NC(C)(C)C)c1 [JA-218, (2S,4R)-1-((S)-2-(3-(2-(2-(4-(4-((4-((3-(N-(tert-butyl)sulfamoyl)phenyl)amino)-5-methylpyrimidin-2-yl)amino)phenyl)piperazin-1-yl)acetamido)ethoxy)propanamido)-3,3-dimethylbutanoyl)-4-hydroxy-N-(4-(4-methylthiazol-5-yl)benzyl)pyrrolidine-2-carboxamide] | > 10 |
| CS(=O)(=O)c1ccc(-c2cccc3nc(Nc4ccc(N5CCN(CC(=O)NCCCCCCNc6ccc7c(c6)C(=O)N(C6CCC(=O)NC6=O)C7=O)CC5)cc4)nn23)cc1 (stereo not drawn) [JA-215, N-(6-((2-(2,6-dioxopiperidin-3-yl)-1,3-dioxoisoindolin-5-yl)amino)hexyl)-2-(4-(4-((5-(4-(methylsulfonyl)phenyl)-[1,2,4]triazolo[1,5-a]pyridin-2-yl)amino)phenyl)piperazin-1-yl)acetamide] | > 10 |
| O=C1CCC(N2C(=O)c3ccc(OCCCCCCN4CCC(n5cc(-c6cnc7cccc(-c8cc(F)c(CN9CCOCC9)c(F)c8)c7n6)cn5)CC4)cc3C2=O)C(=O)N1 (stereo not drawn) [JA-267, 5-((6-(4-(4-(8-(3,5-Difluoro-4-(morpholinomethyl)phenyl)quinoxalin-2-yl)-1H-pyrazol-1-yl)piperidin-1-yl)hexyl)oxy)-2-(2,6-dioxopiperidin-3-yl)isoindoline-1,3-dione] | 0.426 |
| Cc1ncsc1-c1ccc(CNC(=O)[C@@H]2C[C@@H](O)CN2C(=O)[C@@H](NC(=O)CCCCCCCCCNC(=O)CN2CCC(n3cc(-c4cnc5cccc(-c6cc(F)c(CN7CCOCC7)c(F)c6)c5n4)cn3)CC2)C(C)(C)C)cc1 [JA-166, (2S,4R)-1-((S)-2-(10-(2-(4-(4-(8-(3,5-Difluoro-4-(morpholinomethyl)phenyl)quinoxalin-2-yl)-1H-pyrazol-1-yl)piperidin-1-yl)acetamido)decanamido)-3,3-dimethylbutanoyl)-4-hydroxy-N-(4-(4-methylthiazol-5-yl)benzyl)pyrrolidine-2-carboxamide] | 4.45 |
| Cc1ncsc1-c1ccc(CNC(=O)[C@@H]2C[C@@H](O)CN2C(=O)[C@@H](NC(=O)CCC(=O)N2CCC(n3cc(-c4cnc5cccc(-c6cc(F)c(CN7CCOCC7)c(F)c6)c5n4)cn3)CC2)C(C)(C)C)cc1 [JA-060, (2S,4R)-1-[(2S)-2-[[4-[4-[4-[8-[3,5-Difluoro-4-(morpholinomethyl)phenyl]quinoxalin-2-yl]pyrazol-1-yl]-1-piperidyl]-4-oxo-butanoyl]amino]-3,3-dimethyl-butanoyl]-4-hydroxy-N-[[4-(4-methylthiazol-5-yl)phenyl]methyl]pyrrolidine-2-carboxamide] | > 10 |
| CS(=O)(=O)c1ccc(-c2cccc3nc(Nc4ccc(N5CCN(C(=O)CCOCCOCCOCCNc6cccc7c6C(=O)N(C6CCC(=O)NC6=O)C7=O)CC5)cc4)nn23)cc1 (stereo not drawn) [JA-085, 2-(2,6-Dioxo-piperidin-3-yl)-4-[2-(2-{2-[3-(4-{4-[5-(4-methanesulfonyl-phenyl)-[1,2,4]triazolo[1,5-a]pyridin-2-ylamino]-phenyl}-piperazin-1-yl)-3-oxo-propoxy]-ethoxy}-ethoxy)-ethylamino]-isoindole-1,3-dione] | 3.95 |
| Cc1ncsc1-c1ccc(CNC(=O)[C@@H]2C[C@@H](O)CN2C(=O)[C@@H](NC(=O)CCCCCCCCCNC(=O)CN2CCN(c3ccc(Nc4nc5cccc(-c6ccc(S(C)(=O)=O)cc6)n5n4)cc3)CC2)C(C)(C)C)cc1 [JA-120, (2S,4R)-1-((S)-3,3-Dimethyl-2-(10-(2-(4-(4-((5-(4-(methylsulfonyl)phenyl)-[1,2,4]triazolo[1,5-a]pyridin-2-yl)amino)phenyl)piperazin-1-yl)acetamido)decanamido)butanoyl)-4-hydroxy-N-(4-(4-methylthiazol-5-yl)benzyl)pyrrolidine-2-carboxamide] | > 10 |
| Cc1cnc(Nc2ccc(N3CCN(C(=O)CCCCCNc4cccc5c4C(=O)N(C4CCC(=O)NC4=O)C5=O)CC3)cc2)nc1Nc1cccc(S(=O)(=O)NC(C)(C)C)c1 (stereo not drawn) [JA-007, N-(tert-Butyl)-3-((2-((4-(4-(6-((2-(2,6-dioxopiperidin-3-yl)-1,3-dioxoisoindolin-4-yl)amino)hexanoyl)piperazin-1-yl)phenyl)amino)-5-methylpyrimidin-4-yl)amino)benzenesulfonamide] | > 10 |
| Cc1ncsc1-c1ccc(CNC(=O)[C@@H]2C[C@@H](O)CN2C(=O)[C@@H](NC(=O)CCNC(=O)CN2CCC(n3cc(-c4cnc5cccc(-c6cc(F)c(CN7CCOCC7)c(F)c6)c5n4)cn3)CC2)C(C)(C)C)cc1 [JA-155, (2S,4R)-1-((S)-2-(3-(2-(4-(4-(8-(3,5-Difluoro-4-(morpholinomethyl)phenyl)quinoxalin-2-yl)-1H-pyrazol-1-yl)piperidin-1-yl)acetamido)propanamido)-3,3-dimethylbutanoyl)-4-hydroxy-N-(4-(4-methylthiazol-5-yl)benzyl)pyrrolidine-2-carboxamide] | > 10 |
| CS(=O)(=O)c1ccc(-c2cccc3nc(Nc4ccc(N5CCN(CC(=O)NCCOCCOCCOCCOCCNc6cccc7c6C(=O)N(C6CCC(=O)NC6=O)C7=O)CC5)cc4)nn23)cc1 (stereo not drawn) [JA-114, N-(14-((2-(2,6-Dioxopiperidin-3-yl)-1,3-dioxoisoindolin-4-yl)amino)-3,6,9,12-tetraoxatetradecyl)-2-(4-(4-((5-(4-(methylsulfonyl)phenyl)-[1,2,4]triazolo[1,5-a]pyridin-2-yl)amino)phenyl)piperazin-1-yl)acetamide] | > 10 |
| O=C(CN1CCC(n2cc(-c3cnc4cccc(-c5cc(F)c(CN6CCOCC6)c(F)c5)c4n3)cn2)CC1)NCCOCCNc1ccc2c(c1)C(=O)N(C1CCC(=O)NC1=O)C2=O (stereo not drawn) [JA-169, 2-(4-(4-(8-(3,5-Difluoro-4-(morpholinomethyl)phenyl)quinoxalin-2-yl)-1H-pyrazol-1-yl)piperidin-1-yl)-N-(2-(2-((2-(2,6-dioxopiperidin-3-yl)-1,3-dioxoisoindolin-5-yl)amino)ethoxy)ethyl)acetamide] | 2.03 |
| CS(=O)(=O)c1ccc(-c2cccc3nc(Nc4ccc(N5CCN(C(=O)CCCCNc6cccc7c6C(=O)N(C6CCC(=O)NC6=O)C7=O)CC5)cc4)nn23)cc1 (stereo not drawn) [JA-011, 2-(2,6-Dioxo-piperidin-3-yl)-4-[5-(4-{4-[5-(4-methanesulfonyl-phenyl)-[1,2,4]triazolo[1,5-a]pyridin-2-ylamino]-phenyl}-piperazin-1-yl)-5-oxo-pentylamino]-isoindole-1,3-dione] | 3.04 |
| CS(=O)(=O)c1ccc(-c2cccc3nc(Nc4ccc(N5CCN(CC(=O)NCCCCCNc6cccc7c6C(=O)N(C6CCC(=O)NC6=O)C7=O)CC5)cc4)nn23)cc1 (stereo not drawn) [JA-113, N-(5-((2-(2,6-Dioxopiperidin-3-yl)-1,3-dioxoisoindolin-4-yl)amino)pentyl)-2-(4-(4-((5-(4-(methylsulfonyl)phenyl)-[1,2,4]triazolo[1,5-a]pyridin-2-yl)amino)phenyl)piperazin-1-yl)acetamide] | > 10 |
| O=C1CCC(N2C(=O)c3cccc(NCCCCCCCC(=O)N4CCC(n5cc(-c6cnc7cccc(-c8cc(F)c(CN9CCOCC9)c(F)c8)c7n6)cn5)CC4)c3C2=O)C(=O)N1 (stereo not drawn) [JA-038, 4-[[8-[4-[4-[8-[3,5-Difluoro-4-(morpholinomethyl)phenyl]quinoxalin-2-yl]pyrazol-1-yl]-1-piperidyl]-8-oxo-octyl]amino]-2-(2,6-dioxo-3-piperidyl)isoindoline-1,3-dione] | > 10 |
| CS(=O)(=O)c1ccc(-c2cccc3nc(Nc4ccc(N5CCN(CCCCCC#Cc6ccc7c(c6)C(=O)N(C6CCC(=O)NC6=O)C7=O)CC5)cc4)nn23)cc1 (stereo not drawn) [JA-252, 2-(2,6-dioxopiperidin-3-yl)-5-(7-(4-(4-((5-(4-(methylsulfonyl)phenyl)-[1,2,4]triazolo[1,5-a]pyridin-2-yl)amino)phenyl)piperazin-1-yl)hept-1-yn-1-yl)isoindoline-1,3-dione] | 0.0246 |
| Cc1cnc(Nc2ccc(N3CCN(CC(=O)NCC(=O)N[C@H](C(=O)N4C[C@H](O)C[C@H]4C(=O)NCc4ccc(-c5scnc5C)cc4)C(C)(C)C)CC3)cc2)nc1Nc1cccc(S(=O)(=O)NC(C)(C)C)c1 [JA-097, (2S,4R)-1-((S)-2-(2-(2-(4-(4-((4-((3-(N-(tert-Butyl)sulfamoyl)phenyl)amino)-5-methylpyrimidin-2-yl)amino)phenyl)piperazin-1-yl)acetamido)acetamido)-3,3-dimethylbutanoyl)-4-hydroxy-N-(4-(4-methylthiazol-5-yl)benzyl)pyrrolidine-2-carboxamide] | > 10 |
